Test results: patent US10336675B2, “Biaromatic vitamin D analogs” (DSM IP ASSETS B.V., priority 2015, dated 2019)

target: T1, human vitamin D receptor (VDR) (Homo sapiens, UniProt P11473); experiment: Human vitamin D receptor (VDR) agonist activity: GAL4-VDR LBD luciferase transactivation assay in transiently transfected HEK293 cells; format: cell-based; conditions: VDR LBD-GAL4 DBD fusion, pFR-Luc luciferase reporter, 16 h incubation, read-out: Effective concentrations of half maximal activation (EC50)
T1 construct: expressed in transfected cells; host or cells: HEK293 cells (ATCC), transient transfection with a GATEWAY-compatible pCMV-BD vector
T1 sequence (P11473 127-423 limits assumed): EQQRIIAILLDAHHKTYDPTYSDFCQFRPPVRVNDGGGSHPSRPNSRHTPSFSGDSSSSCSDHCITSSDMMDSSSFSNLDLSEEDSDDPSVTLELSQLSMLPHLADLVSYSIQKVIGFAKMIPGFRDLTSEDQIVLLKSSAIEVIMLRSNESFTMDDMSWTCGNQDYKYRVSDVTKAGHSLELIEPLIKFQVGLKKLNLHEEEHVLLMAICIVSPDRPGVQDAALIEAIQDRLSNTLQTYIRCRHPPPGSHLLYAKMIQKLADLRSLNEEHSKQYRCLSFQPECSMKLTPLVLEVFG
Source text: By way of example, the human vitamin D receptor (VDR) agonist activity of the claimed compounds can be tested using a cell based transactivation assay in an eukaryotic cell line. After a co-transfection, using a reporter plasmid construct and a hybrid receptor construct containing the ligand-binding domain of the human VDR linked to the DNA-binding domain of the yeast transcription factor GAL4, the cultured cells were stimulated by the VDR agonists. The hybrid VDR-GAL4 receptor binds the VDR agonists and transactivates luciferase reporter expression through the GAL4-response elements in the promoter of the luciferase gene (reporter construct). The VDR agonist binding and transactivation is determined by measuring the luciferase luminescence activity. The effective concentration of half maximal activation (EC50) was determined for the VDR agonists by means of dose-response experiments. The details of the protocol method of this test according to the invention are described in the example section.
Testing of the Human Vitamin D Receptor (VDR) Agonist Activity of the Compounds
The transient transfections were performed in HEK293 cells (ATCC, Molsheim, France) grown in minimum essential medium (Eagle) with Earle's balanced salt solution without L-glutamine and supplemented with 10% fetal bovine serum (Sigma-Aldrich Corp., St. Gallen, Switzerland), 2 mM glutamax (Life Technologies AG, Basel, Switzerland), 0.1 mM non-essential amino acids (Life Technologies), and 1 mM sodium pyruvate (Life Technologies) at 37° C. in 5% CO2. For transfection, 7.5×10^4 cells were plated per well (80 μl) in white 96-well cell culture plates with clear bottom (Corning, Basel, Switzerland) in minimum essential medium (Eagle) with Earle's balanced salt solution without L-glutamine and without phenol red supplemented with 10% charcoal-treated fetal bovine serum (HyClone Laboratories, Inc., Logan, Utah, USA), 2 mM glutamax, 0.1 mM non-essential amino acids, and 1 mM sodium pyruvate. The cells were transiently transfected before stimulation the next day at >80% confluence by polyethylene-imine-based transfection. Compound stocks were prepared in DMSO, pre-diluted in PBS (0.45% final DMSO concentration), and added in the respective dilution 5 h after the addition of the transfection mixture onto the cells. The cells were again incubated for additional 16 h before firefly and renilla luciferases activity was measured sequentially in the same cell extract using buffers according to established protocols (Promega AG, Dübendorf, Switzerland). Transfection efficiency was controlled to the pRL-TK renilla luciferase reporter expression.

CC/C(=C\C=C\C(O)(C(F)(F)F)C(F)(F)F)c1cccc(CCc2ccc(C(O)CCO)cc2)c1 (racemic) [I-b, 1-(4-(3-((3E,5E)-8,8,8-trifluoro-7-hydroxy-7-(trifluoromethyl)octa-3,5-dien-3-yl)phenethyl)phenyl)propane-1,3-diol] and CC/C(=C\C=C\C(O)(CC)CC)c1cccc(CCc2ccc(C(O)CCO)cc2)c1 (racemic) [I-c, 1-(4-(3-((3E,5E)-7-ethyl-7-hydroxynona-3,5-dien-3-yl)phenethyl)phenyl)propane-1,3-diol] are within 1.5-fold of each other in EC50: 12 nM for the first, 13 nM for the second.

CC/C(=C\C=C\C(O)(CC)CC)c1cccc(CCc2ccc(C(O)C(C)C(C)O)cc2)c1 (stereo not shown) [I-f, 1-(4-{2-[3-((1E,3E)-1,5-Diethyl-5-hydroxy-hepta-1,3-dienyl)-phenyl]-ethyl}-phenyl)-2-methylbutane-1,3-diol] and CC/C(=C\C=C\C(O)(CC)CC)c1cccc(CCc2ccc(C(O)C(C)CO)cc2)c1 (stereo not shown) [I-d, 1-(4-(3-((3E,5E)-7-ethyl-7-hydroxynona-3,5-dien-3-yl)phenethyl)phenyl)-2-methylpropane-1,3-diol] are within 1.5-fold of each other in EC50: 34 nM for the first, 28 nM for the second.

Compared with CC/C(=C\C=C\C(O)(CC)CC)c1cccc(CCc2ccc(C(O)C(CO)CCCO)cc2)c1 (stereo not shown) [I-e, 1-(4-(3-((3E,5E)-7-ethyl-7-hydroxynona-3,5-dien-3-yl)phenethyl)phenyl)-2-(hydroxymethyl)pentane-1,5-diol], CC/C(=C\C=C\C(O)(CC)CC)c1cccc(CCc2ccc(C(O)C(CO)CCCCO)cc2)c1 (stereo not shown) [Comp1, reference compound] is 3.7-fold higher in EC50: 30 nM for the first, 111 nM for the second. The first is the more potent here.

Molecule CC/C(=C\C=C\C(O)(CC)CC)c1cccc(CCc2ccc(C(O)CC(C)O)cc2)c1 (stereo not shown) [I-a, 1-(4-(3-((3E,5E)-7-ethyl-7-hydroxynona-3,5-dien-3-yl)phenethyl)phenyl)butane-1,3-diol] has an EC50 of 4 nM.
